Test results as given in the supplement of paper PMC10307832.

What was measured:
Experiment in all cases: relative viability (nuclei count vs DMSO), 5 days (fraction); higher = more cells survive
Dovitinib + Trametinib = compound: CN1CCN(c2ccc3nc(-c4c(N)c5c(F)cccc5[nH]c4=O)[nH]c3c2)CC1 [Dovitinib] + CC(=O)Nc1cccc(-n2c(=O)n(C3CC3)c(=O)c3c(Nc4ccc(I)cc4F)n(C)c(=O)c(C)c32)c1 [Trametinib] (partner 0.02 µM)
Method in brief: (§1)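 For relative viability, nuclei counts in treated wells were divided by those in vehicle wells. Lung cancer cell lines had been pin-tool dosed in 1536-well plates the day after seeding and cultured for 5 days, then fixed and stained in one step (final 0.05% Triton X-100, 1% formaldehyde, 1 ug/ml Hoechst) and imaged at 4×. Doses were one drug alone or a fixed anchor-drug dose plus five library-drug doses (not always all listed) in √10 steps, and values are duplicate-plate medians.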

Dovitinib + Crizotinib = compound: CN1CCN(c2ccc3nc(-c4c(N)c5c(F)cccc5[nH]c4=O)[nH]c3c2)CC1 [Dovitinib] + C[C@@H](Oc1cc(-c2cnn(C3CCNCC3)c2)cnc1N)c1c(Cl)ccc(F)c1Cl [Crizotinib] (partner 1 µM)
Method in brief: as §1

Dovitinib + Phenformin = compound: CN1CCN(c2ccc3nc(-c4c(N)c5c(F)cccc5[nH]c4=O)[nH]c3c2)CC1 [Dovitinib] + N=C(N)NC(=N)NCCc1ccccc1 [Phenformin] (partner 250 µM)
Method in brief: as §1

Dovitinib + OSI-027 = compound: CN1CCN(c2ccc3nc(-c4c(N)c5c(F)cccc5[nH]c4=O)[nH]c3c2)CC1 [Dovitinib] + COc1cccc2cc(-c3nc([C@H]4CC[C@H](C(=O)O)CC4)n4ncnc(N)c34)[nH]c12 [OSI-027] (partner 0.5 µM)
Method in brief: as §1

Cell Line	relative viability (Dovitinib + Trametinib; first compound 0.02 µM)	relative viability (Dovitinib + Trametinib; first compound 0.06325 µM)	relative viability (Dovitinib + Trametinib; first compound 0.2 µM)	relative viability (Dovitinib + Trametinib; first compound 0.6325 µM)	relative viability (Dovitinib + Trametinib; first compound 2 µM)	relative viability (Dovitinib + Crizotinib; first compound 0.02 µM)	relative viability (Dovitinib + Crizotinib; first compound 0.06325 µM)	relative viability (Dovitinib + Crizotinib; first compound 0.2 µM)	relative viability (Dovitinib + Crizotinib; first compound 0.6325 µM)	relative viability (Dovitinib + Crizotinib; first compound 2 µM)	relative viability (Dovitinib + Phenformin; first compound 0.02 µM)	relative viability (Dovitinib + Phenformin; first compound 0.06325 µM)	relative viability (Dovitinib + Phenformin; first compound 0.2 µM)	relative viability (Dovitinib + Phenformin; first compound 0.6325 µM)	relative viability (Dovitinib + Phenformin; first compound 2 µM)	relative viability (Dovitinib + OSI-027; first compound 0.02 µM)	relative viability (Dovitinib + OSI-027; first compound 0.06325 µM)	relative viability (Dovitinib + OSI-027; first compound 0.2 µM)	relative viability (Dovitinib + OSI-027; first compound 0.6325 µM)	relative viability (Dovitinib + OSI-027; first compound 2 µM)
NCI-H1734	0.652	0.68	0.762	0.651	0.642	0.635	0.664	0.637	0.598	0.643	0.418	0.408	0.38	0.396	0.372	0.655	0.632	0.687	0.575	0.55
NCI-H1755	0.831	0.766	0.794	0.733	0.758	0.861	0.878	0.834	0.852	0.86	0.625	0.601	0.617	0.591	0.657	0.744	0.732	0.759	0.714	0.712
NCI-H1792	0.394	0.457	0.416	0.46	0.36	0.998	0.977	0.997	1.04	0.971	0.384	0.264	0.482	0.357	0.322	0.79	0.641	0.762	0.755	0.61
NCI-H1915	0.275	0.282	0.306	0.283	0.319	0.854	0.886	0.838	0.922	0.841	0.361	0.38	0.365	0.358	0.379	0.559	0.635	0.621	0.602	0.647
NCI-H1944	0.391	0.395	0.409	0.395	0.36	1.02	1.13	1.05	1.08	1.18	0.216	0.198	0.244	0.202	0.217	0.426	0.383	0.398	0.39	0.431
NCI-H1975	0.404	0.405	0.329	0.382	0.388	0.898	0.934	1.02	0.937	0.95	0.427	0.415	0.411	0.409	0.423	0.749	0.735	0.732	0.664	0.666
NCI-H1993	0.517	0.481	0.489	0.58	0.502	0.917	0.818	0.811	1.04	0.942	0.483	0.516	0.496	0.499	0.505	0.599	0.545	0.597	0.505	0.573
NCI-H2009	0.291	0.301	0.289	0.228	0.265	0.919	1.06	1.04	1.03	1.12	0.456	0.493	0.47	0.408	0.562	0.546	0.621	0.642	0.638	0.611
